Experimental data reported in ChEMBL document CHEMBL1201862, “PubChem BioAssay data set” (2004).
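Method: 48-hour compound exposure of cells in 96-well plates, five concentrations, linear interpolation of endpoints. GI50 = concentration required for 50% inhibition of growth.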 Activity calls are given as the source filed them. Rule as the data show it: active = GI50 up to about 1.1 µM and inactive = higher.

Assays:
Experiment in all cases: NCI anticancer screen, dose series, 48 h
[1] = system: RPMI-8226
[2] = system: UACC-257
[3] = system: OVCAR-8
[4] = system: NCI-H522
[5] = system: M19-MEL
[6] = system: HL-60
[7] = system: SN12C
[8] = system: LOX IMVI
[9] = system: 786-0
[10] = system: HOP-92
[11] = system: KM-20L2
[12] = system: Malme-3M
[13] = system: SR
[14] = system: RXF 631
[15] = system: DLD-1
[16] = system: OVCAR-3
[17] = system: KM12
[18] = system: NCI-H23
[19] = system: SK-MEL-5
[20] = system: A549
[21] = system: DMS-273
[22] = system: LXFL 529
[23] = system: TK-10
[24] = system: RXF 393
[25] = system: HCC 2998
[26] = system: SF-268
[27] = system: SK-MEL-2
[28] = system: HCT-15
[29] = system: EKVX
[30] = system: SF-539
[31] = system: CAKI-1
[32] = system: XF498
[33] = system: HOP-62
[34] = system: SNB-75
[35] = system: SNB-78
[36] = system: K562
[37] = system: NCI-H460
[38] = system: IGROV-1
[39] = system: M14
[40] = system: HT-29
[41] = system: A498
[42] = system: SK-MEL-28
[43] = system: ACHN
[44] = system: SF-295
[45] = system: MOLT-4
[46] = system: COLO 205
[47] = system: SW-620
[48] = system: SNB-19
[49] = system: DMS-114
[50] = system: UO-31
[51] = system: SK-OV-3
[52] = system: UACC-62
[53] = system: CCRF-CEM
[54] = system: OVCAR-4
[55] = system: HOP-18
[56] = system: NCI-H226
[57] = system: U-251
[58] = system: HCT-116
[59] = system: OVCAR-5

In the case of `Cn1cc2ccccc2c1-c1nc(F)nc(OCC(=O)[C@H]2CCC3[C@@H]4CCC5=CC(=O)CC[C@]5(C)C4[C@@H](O)C[C@@]32C)n1` (some centres not stated), the GI50 [1] was 6.61 µM (inactive), the GI50 [2] was 18.8 µM (inactive) and the GI50 [3] was 7.13 µM (inactive). For the same compound, the GI50 [4] was 15.2 µM (inactive), the GI50 [5] was 4.34 µM (inactive) and the GI50 [6] was 6.27 µM (inactive). For the same compound, the GI50 [7] was 15.7 µM (inactive), the GI50 [8] was 4.66 µM (inactive) and the GI50 [9] was 16.5 µM (inactive). For the same compound, the GI50 [10] was 19.8 µM (inactive), the GI50 [11] was 26.1 µM (inactive) and the GI50 [12] was 18.9 µM (inactive). For the same compound, the GI50 [13] was 2.86 µM (inactive), the GI50 [14] was 2.33 µM (inactive) and the GI50 [15] was 8.89 µM (inactive). The GI50 [16] was 17 µM (inactive), the GI50 [17] was 16.6 µM (inactive) and the GI50 [18] was 7.78 µM (inactive). The GI50 [19] was 20.3 µM (inactive), the GI50 [20] was 32.4 µM (inactive) and the GI50 [21] was 15.6 µM (inactive). For the same compound, the GI50 [22] was 3.72 µM (inactive), the GI50 [23] was 23.1 µM (inactive) and the GI50 [24] was 3.92 µM (inactive). The GI50 [25] was 25.6 µM (inactive), the GI50 [26] was 13.1 µM (inactive) and the GI50 [27] was 13.2 µM (inactive). The GI50 [28] was 7.18 µM, the GI50 [29] was 23.4 µM (inactive) and the GI50 [30] was 17.8 µM (inactive). The GI50 [31] was 3.92 µM (inactive), the GI50 [32] was 8.65 µM (inactive) and the GI50 [33] was 22 µM (inactive). For the same compound, the GI50 [34] was 19 µM (inactive), the GI50 [35] was 13.2 µM (inactive) and the GI50 [36] was 2.91 µM (inactive). For the same compound, the GI50 [37] was 21.7 µM (inactive), the GI50 [38] was 7.48 µM (inactive) and the GI50 [39] was 20.3 µM (inactive). The GI50 [40] was 21.6 µM (inactive), the GI50 [41] was 17.3 µM (inactive) and the GI50 [42] was 11.2 µM (inactive). For the same compound, the GI50 [43] was 17.7 µM (inactive), the GI50 [44] was 23.8 µM (inactive) and the GI50 [45] was 4.83 µM (inactive). For the same compound, the GI50 [46] was 20 µM (inactive), the GI50 [47] was 8.04 µM (inactive) and the GI50 [48] was 19.4 µM (inactive). For the same compound, the GI50 [49] was 7.52 µM (inactive), the GI50 [50] was 19.6 µM (inactive) and the GI50 [51] was 19.1 µM (inactive). For the same compound, the GI50 [52] was 17.1 µM (inactive), the GI50 [53] was 4.31 µM (inactive) and the GI50 [54] was 14.9 µM (inactive). For the same compound, the GI50 [55] was 15.5 µM (inactive), the GI50 [56] was 19.2 µM (inactive) and the GI50 [57] was 19.4 µM (inactive). For the same compound, the GI50 [58] was 11.1 µM (inactive) and the GI50 [59] was 37.8 µM (inactive).

In the case of `CCOc1ccc2nc(NC(=O)c3c/c(=N\NC(=O)C[N+](C)(C)C)c4ccc(O)cc4o3)sc2c1`, the GI50 [1] was 2.15 µM (inactive), the GI50 [2] was 1.49 µM (inactive) and the GI50 [3] was 2.14 µM (inactive). For the same compound, the GI50 [4] was 1.95 µM (inactive), the GI50 [5] was 0.294 µM (active) and the GI50 [6] was 1.59 µM (inactive). The GI50 [7] was 3.55 µM (inactive), the GI50 [8] was 1.14 µM (inactive) and the GI50 [9] was 3.62 µM (inactive). The GI50 [10] was 1.72 µM (inactive), the GI50 [11] was 3.21 µM (inactive) and the GI50 [12] was 1.28 µM (inactive). For the same compound, the GI50 [13] was 3.05 µM (inactive), the GI50 [14] was 6.03 µM (inactive) and the GI50 [15] was 2.52 µM (inactive). For the same compound, the GI50 [16] was 0.13 µM (active), the GI50 [17] was 5.28 µM (inactive) and the GI50 [18] was 1.59 µM (inactive). For the same compound, the GI50 [19] was 0.555 µM (active), the GI50 [20] was 2.76 µM (inactive) and the GI50 [21] was 3.34 µM (inactive). For the same compound, the GI50 [22] was 2.02 µM (inactive), the GI50 [23] was 21.7 µM (inactive) and the GI50 [24] was 5.87 µM (inactive). For the same compound, the GI50 [25] was 7.53 µM (inactive), the GI50 [26] was 3.29 µM (inactive) and the GI50 [27] was 2.43 µM (inactive). For the same compound, the GI50 [28] was 5.93 µM, the GI50 [29] was 4.44 µM (inactive) and the GI50 [30] was 3.85 µM (inactive). The GI50 [31] was 6.04 µM (inactive), the GI50 [32] was 2.83 µM (inactive) and the GI50 [34] was 1.52 µM (inactive). The GI50 [35] was 5 µM (inactive), the GI50 [36] was 1.92 µM (inactive) and the GI50 [37] was 3.04 µM (inactive). The GI50 [38] was 2.65 µM (inactive), the GI50 [39] was 1.63 µM (inactive) and the GI50 [40] was 3.56 µM (inactive). For the same compound, the GI50 [41] was 14.6 µM (inactive), the GI50 [42] was 5.75 µM (inactive) and the GI50 [43] was 4.52 µM (inactive). For the same compound, the GI50 [44] was 3.38 µM (inactive), the GI50 [45] was 1.72 µM (inactive) and the GI50 [46] was 1.63 µM (inactive). For the same compound, the GI50 [47] was 2.19 µM (inactive), the GI50 [48] was 5.65 µM (inactive) and the GI50 [49] was 1.91 µM (inactive). For the same compound, the GI50 [50] was 11.8 µM (inactive), the GI50 [51] was 11.3 µM (inactive) and the GI50 [52] was 1.65 µM (inactive). The GI50 [53] was 1.6 µM (inactive), the GI50 [54] was 1.74 µM (inactive) and the GI50 [55] was 2.06 µM (inactive). For the same compound, the GI50 [56] was 3.25 µM (inactive), the GI50 [57] was 2.89 µM (inactive) and the GI50 [58] was 3.4 µM (inactive). For the same compound, the GI50 [59] was 3.37 µM (inactive).
